For assay [1], the system named is H929 multiple myeloma tumour line. The assay is described as follows: In vitro cytotoxicity, Microculture Tetrazolium Assay. Format: cell-based. The procedure:
The cytotoxicity studies were carried out on the H929 multiple myeloma tumour line.
The cells are distributed onto microplates and exposed to the test compounds for 48 hours.

Assay [2] addresses Mcl-1 protein (UniProtKB primary accession number: Q07820) (Homo sapiens, UniProt Q07820). The assay is described as follows: Inhibition of Mcl-1 by fluorescence polarisation, Method 1. It counts as binding. To be noted: read-out: IC50 (M) Mcl-1 FP. The procedure, abridged: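 Binding was measured as fluorescence polarisation of a fluorescein-labelled ligand (1 nM) displaced from Mcl-1 (5 nM), both final. Compounds ran as 11-point series with final DMSO at 5%.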
(Fluorescence polarisation rises when a labelled molecule tumbles more slowly, as on binding a larger partner.)

Setting [3] is: Homo sapiens, NCI-H929, 48 h, H929 cells, 48 hours exposure, MTT, read-out: IC50 (μM) MTT H929.
Setting [4] is: fluorescence polarisation test, Method 2 values are underlined in the patent (underlining not visible here).
[5] abbreviates: fluorescence polarisation, Method 1, or Method 2.
Setting [6] is: H929 cells, 48 hours exposure, MTT, read-out: IC50 (μM) MTT H929.

Like-named read-outs stand apart in the source and are kept apart here.

The term IC50 denotes the point on the concentration scale where inhibition reaches its midpoint.

Sequence of Mcl-1 protein (Q07820 whole entry): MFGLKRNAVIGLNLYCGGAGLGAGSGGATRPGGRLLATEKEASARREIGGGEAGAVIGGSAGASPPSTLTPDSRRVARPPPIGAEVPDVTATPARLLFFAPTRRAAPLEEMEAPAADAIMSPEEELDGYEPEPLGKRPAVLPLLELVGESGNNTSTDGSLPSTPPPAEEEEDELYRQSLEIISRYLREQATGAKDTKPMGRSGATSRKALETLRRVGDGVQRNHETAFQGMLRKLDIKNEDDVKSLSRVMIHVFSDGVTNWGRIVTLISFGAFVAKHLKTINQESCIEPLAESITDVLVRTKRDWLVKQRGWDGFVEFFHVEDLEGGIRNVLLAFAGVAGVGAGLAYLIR

With `Cc1c(-c2c(-c3ccc(F)cc3)sc3ncnc(OC(Cc4ccccc4OCc4ccnc(N5CCOCC5)c4)C(=O)O)c23)ccc(OCCN2CCN(C)CC2)c1Cl` [Example 20, (2R)-2-{[(5Sa)-5-{3-chloro-2-methyl-4-[2-(4-methylpiperazin-1-yl)ethoxy]phenyl}-6-(4-fluorophenyl)thieno[2,3-d]pyrimidin-4-yl]oxy}-3-(2-{[2-(morpholin-4-yl)pyridin-4-yl]methoxy}phenyl)propanoic acid], the results for the IC50 in assay [1] (setting [3]) and in assay [2] (setting [4]) were 0.08 µM and 6.4e-09 M, respectively.

`Cc1c(-c2c(-c3ccc(F)cc3)sc3ncnc(OC(Cc4ccccc4OCc4ccnc(-c5ccc(C(F)(F)F)nc5)n4)C(=O)O)c23)ccc(OCCN2CCN(C)CC2)c1Cl` [Example 109, (2R)-2-{[(5Sa)-5-{3-chloro-2-methyl-4-[2-(4-methylpiperazin-1-yl)ethoxy]phenyl}-6-(4-fluorophenyl)thieno[2,3-d]pyrimidin-4-yl]oxy}-3-[2-({2-[6-(trifluoromethyl)pyridin-3-yl]pyrimidin-4-yl}methoxy)phenyl]propanoic acid]: the figures for the IC50 in assay [1] (setting [3]) and in assay [2] (setting [4]) were 0.108 µM and 8.4e-09 M, respectively.

`CCCCc1nccc(COc2ccccc2CC(Oc2ncnc3sc(-c4ccc(F)cc4)c(-c4ccc(OCCN5CCN(C)CC5)c(Cl)c4C)c23)C(=O)O)n1` [Example 42, (2R)-3-{2-[(2-butylpyrimidin-4-yl)methoxy]phenyl}-2-{[(5Sa)-5-{3-chloro-2-methyl-4-[2-(4-methylpiperazin-1-yl)ethoxy]phenyl}-6-(4-fluorophenyl)thieno[2,3-d]pyrimidin-4-yl]oxy}propanoic acid]: the IC50 in assay [1] (setting [3]) came to 0.012 µM; in assay [2] (setting [4]), 3.2e-09 M.

`Cc1c(-c2c(-c3ccc(F)cc3)sc3ncnc(OC(Cc4ccccc4OCc4ccnc(-c5ccc(Cl)cc5)n4)C(=O)O)c23)ccc(OCCN2CCN(C)CC2)c1Cl` [Example 27, (2R)-2-{[(5Sa)-5-{3-chloro-2-methyl-4-[2-(4-methylpiperazin-1-yl)ethoxy]phenyl}-6-(4-fluorophenyl)thieno[2,3-d]pyrimidin-4-yl]oxy}-3-(2-{[2-(4-chlorophenyl)pyrimidin-4-yl]methoxy}phenyl)propanoic acid]: the IC50 is 0.045 µM in assay [1] (setting [3]) and 6.6e-09 M in assay [2] (setting [4]).

In the case of `COCc1cc(-c2sc3ncnc(OC(Cc4ccccc4OCc4ccnc(OC)n4)C(=O)O)c3c2-c2ccc(OCCN3CCN(C)CC3)c(Cl)c2C)ccc1F` [Example 594, (2R)-2-[((5Sa)-5-{3-chloro-2-methyl-4-[2-(4-methylpiperazin-1-yl)ethoxy]phenyl}-6-[4-fluoro-3-(methoxymethyl)phenyl]thieno[2,3-d]pyrimidin-4-yl)oxy]-3-{2-[(2-methoxypyrimidin-4-yl)methoxy]phenyl}propanoic acid], the IC50 in assay [1] (setting [3]) was determined as 0.13 µM; in assay [2] (setting [5]), 6.1e-09 M.

With `COc1ccccc1CC(Oc1ncnc2sc(-c3ccsc3)c(-c3ccc(OCCN4CCN(C)CC4)c(Cl)c3C)c12)C(=O)O` [Example 568, (2R)-2-{[(5Sa)-5-{3-chloro-2-methyl-4-[2-(4-methylpiperazin-1-yl)ethoxy]phenyl}-6-(thiophen-3-yl)thieno[2,3-d]pyrimidin-4-yl]oxy}-3-(2-methoxyphenyl)propanoic acid], the IC50 in assay [1] (setting [3]) was 0.22 µM; in assay [2] (setting [5]), 2.5e-08 M.

With `COc1ccccc1CC(Oc1ncnc2sc(-c3cccc(Cl)c3F)c(-c3ccc(OCCN4CCN(C)CC4)c(Cl)c3C)c12)C(=O)O` [Example 559, (2R)-2-{[6-(3-chloro-2-fluorophenyl)-(5Sa)-5-{3-chloro-2-methyl-4-[2-(4-methylpiperazin-1-yl)ethoxy]phenyl}thieno[2,3-d]pyrimidin-4-yl]oxy}-3-(2-methoxyphenyl)propanoic acid], the IC50 in assay [1] (setting [3]) was found to be 0.293 µM; in assay [2] (setting [5]) it was 5.2e-09 M.

For the molecule `COc1ccc(COc2ccccc2CC(Oc2ncnc3sc(-c4ccco4)c(-c4ccc(OCCN5CCN(C)CC5)c(Cl)c4C)c23)C(=O)O)nc1` [Example 233, (2R)-2-{[(5Sa)-5-{3-chloro-2-methyl-4-[2-(4-methylpiperazin-1-yl)ethoxy]phenyl}-6-(furan-2-yl)thieno[2,3-d]pyrimidin-4-yl]oxy}-3-{2-[(5-methoxypyridin-2-yl)methoxy]phenyl}propanoic acid], the IC50 in assay [1] (setting [3]) came out at 0.099 µM; in assay [2] (setting [4]), 3.4e-09 M.

Take `Cc1c(-c2c(-c3ccco3)sc3ncnc(OC(Cc4ccccc4OCc4cc(-c5ccccc5)nn4C)C(=O)O)c23)ccc(OCCN2CCN(C)CC2)c1Cl` [Example 227, (2R)-2-{[(5Sa)-5-{3-chloro-2-methyl-4-[2-(4-methylpiperazin-1-yl)ethoxy]phenyl}-6-(furan-2-yl)thieno[2,3-d]pyrimidin-4-yl]oxy}-3-{2-[(1-methyl-3-phenyl-1H-pyrazol-5-yl)methoxy]phenyl}propanoic acid]: the IC50 in assay [1] (setting [3]) was found to be 0.192 µM; in assay [2] (setting [4]), 2e-08 M.

Regarding `COc1ccccc1C[C@@H](Oc1ncnc2sc(-c3ccc(F)c(Cl)c3F)c(-c3ccc(OCCN4CCN(C)CC4)c(Cl)c3C)c12)C(=O)O` [Example 536, (2R)-2-{[6-(3-chloro-2,4-difluorophenyl)-(5Sa)-5-{3-chloro-2-methyl-4-[2-(4-methylpiperazin-1-yl)ethoxy]phenyl}thieno[2,3-d]pyrimidin-4-yl]oxy}-3-(2-methoxyphenyl)propanoic acid], the IC50 in assay [1] (setting [6]) came to 0.797 µM; in assay [2] (setting [5]), 7.7e-08 M.

For the molecule `Cc1c(-c2c(-c3ccco3)sc3ncnc(OC(Cc4ccccc4OCc4ccc(Cl)cn4)C(=O)O)c23)ccc(OCCN2CCN(C)CC2)c1Cl` [Example 231, (2R)-2-{[(5Sa)-5-{3-chloro-2-methyl-4-[2-(4-methylpiperazin-1-yl)ethoxy]phenyl}-6-(furan-2-yl)thieno[2,3-d]pyrimidin-4-yl]oxy}-3-{2-[(5-chloropyridin-2-yl)methoxy]phenyl}propanoic acid], the IC50 in assay [1] (setting [3]) was found to be 0.116 µM; in assay [2] (setting [4]), 1e-08 M.

`COc1ccccc1C[C@@H](Oc1ncnc2sc(-c3ccc(F)cc3)c(-c3ccc(CCCN4CCN(C)CC4)c(Cl)c3C)c12)C(=O)O` (single isomer, unassigned) [Example 654]: the IC50 in assay [1] (Homo sapiens, NCI-H929, 48 h, read-out: IC50 (μM) MTT H929, H929 cells, 48 hours exposure, MTT) was found to be 2.08 µM; in assay [2] (setting [5]) it was 4e-08 M.

`CCCCCn1nccc1C(C)Oc1ccccc1CC(Oc1ncnc2sc(-c3ccc(F)cc3)c(-c3ccc(OCCN4CCN(C)CC4)c(Cl)c3C)c12)C(=O)O` (single isomer, unassigned) [Example 6, (2R)-2-{[(5Sa)-5-{3-chloro-2-methyl-4-[2-(4-methylpiperazin-1-yl)ethoxy]phenyl}-6-(4-fluorophenyl)thieno[2,3-d]pyrimidin-4-yl]oxy}-3-{2-[(1S or R)-1-(1-pentyl-1H-pyrazol-5-yl)ethoxy]phenyl}propanoic acid]: the IC50 in assay [1] (setting [6]) was found to be 0.332 µM; in assay [2] (setting [4]), 4.9e-09 M.

Regarding `Cc1c(-c2c(-c3ccc(F)cc3)sc3ncnc(OC(Cc4ccccc4OCc4ccnc(-c5ccoc5)n4)C(=O)O)c23)ccc(OCCN2CCN(C)CC2)c1Cl` [Example 35, (2R)-2-{[(5Sa)-5-{3-chloro-2-methyl-4-[2-(4-methylpiperazin-1-yl)ethoxy]phenyl}-6-(4-fluorophenyl)thieno[2,3-d]pyrimidin-4-yl]oxy}-3-(2-{[2-(furan-3-yl)pyrimidin-4-yl]methoxy}phenyl)propanoic acid], the IC50 came to 0.027 µM in assay [1] (setting [3]) and 4.8e-09 M in assay [2] (setting [4]).

For the molecule `COc1ccccc1CC(Oc1ncnc2sc(-c3ccc(F)c(C(F)(F)F)c3)c(-c3ccc(OCCN4CCN(C)CC4)c(Cl)c3C)c12)C(=O)O` [Example 531, (2R)-2-[(5Sa)-(5-{3-chloro-2-methyl-4-[2-(4-methylpiperazin-1-yl)ethoxy]phenyl}-6-[4-fluoro-3-(trifluoromethyl)phenyl]thieno[2,3-d]pyrimidin-4-yl)oxy]-3-(2-methoxyphenyl)propanoic acid], the IC50 in assay [1] (setting [3]) was 1.22 µM; in assay [2] (setting [5]) it was 3.5e-09 M.

As to `Cc1c(-c2c(-c3ccco3)sc3ncnc(OC(Cc4ccccc4OCC4CCO4)C(=O)O)c23)ccc(OCCN2CCN(C)CC2)c1Cl` [Example 266, (2R)-2-{[(5Sa)-5-{3-chloro-2-methyl-4-[2-(4-methylpiperazin-1-yl)ethoxy]phenyl}-6-(furan-2-yl)thieno[2,3-d]pyrimidin-4-yl]oxy}-3-[2-(oxetan-2-ylmethoxy)phenyl]propanoic acid], the values for the IC50 in assay [1] (setting [3]) and in assay [2] (setting [4]) were 0.093 µM and 5.7e-09 M, respectively.

With `COc1ccccc1CC(Oc1ncnc2sc(-c3ccco3)c(-c3ccc(OC4CN5CCC4CC5)c(Cl)c3C)c12)C(=O)O` (single isomer, unassigned) [Example 307, (2R)-2-({(5Sa)-5-[4-((3S or R)-1-azabicyclo[2.2.2]oct-3-yloxy)-3-chloro-2-methylphenyl]-6-(furan-2-yl)thieno[2,3-d]pyrimidin-4-yl}oxy)-3-(2-methoxyphenyl)propanoic acid], the IC50 in assay [1] (setting [3]) came to 0.998 µM; in assay [2] (setting [4]) it was 8.3e-09 M.

For `Cc1c(-c2c(-c3ccc(F)o3)sc3ncnc(OC(Cc4ccccc4OCc4ccnn4C4CCCC4)C(=O)O)c23)ccc(OCCN2CCN(C)CC2)c1Cl` [Example 183, (2R)-2-{[(5Sa)-5-{3-chloro-2-methyl-4-[2-(4-methylpiperazin-1-yl)ethoxy]phenyl}-6-(5-fluorofuran-2-yl)thieno[2,3-d]pyrimidin-4-yl]oxy}-3-{2-[(1-cyclopentyl-1H-pyrazol-5-yl)methoxy]phenyl}propanoic acid], the IC50 in assay [1] (setting [3]) was found to be 0.012 µM; in assay [2] (setting [4]), 5.7e-09 M.

These data come from US9670227B2, “Thienopyrimidine derivatives, a process for their preparation and pharmaceutical compositions containing them” (LES LABORATOIRES SERVIER, priority 2013, dated 2017).
